We go through 4 compounds from EP0497852B1, “BICYCLO-IMIDAZOLES, PROCESS FOR PRODUCING THEM AND DRUGS CONTAINING THEM” (BOEHRINGER MANNHEIM GMBH, priority 1989, dated 1991).

SMILES strings stand for the structures.

This assay deals with Erythrozyten-Aggregation. Description: Erythrocyte aggregation in human blood, Mini-Erythrozyten-Aggregometer (Myrenne). The class given is cell-based, Humanblut gesunder Spender. The settings on record: 10⁻⁵ M, haematocrit 45 %, difference between control baseline and substance solution, two experiments, different donors, index dimensionless. The source says: Die Bestimmung der Erythrozyten-Aggregation als Parameter für die Hämorheologie erfolgte mit dem Mini-Erythrozyten-Aggregometer der Fa. Myrenne, Roetgen¹). Als Maß gibt dieses Gerät einen dimensionslosen Index an, der mit steigender Aggregationstendenz zunimmt.
Die Untersuchungen wurden mit dem Humanblut gesunder Spender durchgeführt. Das auf einen Haematokrit von 45 % eingestellte Blut wurde mit der Kontrollösung oder den Substanzlösungen inkubiert. Anschließend wurde die Erythrozyten-Aggregation gemessen. Jede Substanz wurde bei einer Konzentration von 10⁻⁵ M untersucht. Pro Substanz wurden zwei Versuche mit dem Blut verschiedener Spender durchgeführt. Es wurde die Differenz der Aggregationsindices zwischen dem Ausgangswert der Kontrollösung und den Werten der Substanzlösung errechnet. Diese Werte sind in der folgenden Tabelle aufgelistet.
As for `CCN1C(=O)C(C)(C)c2cc(-c3c[nH]c(-c4ccc(F)cc4)n3)ccc21` [Beispiel 5, 1,3-Dihydro-3,3-dimethyl-1-ethyl-5-[2-(4-fluorphenyl)-4(1H)-imidazolyl]-(2H)-indol-2-on], the “Differenz der Erythrozytenaggregationsindices (E₂-E₁)” value is -8.7.

As to `CN1C(=O)C(C)(C)c2cc(-c3c[nH]c(-c4ccccc4)n3)ccc21` [Beispiel 17, 1,3-Dihydro-1,3,3-trimethyl-5-[2-phenyl-4(1H)-imidazolyl]-(2H)-indol-2-on], the “Differenz der Erythrozytenaggregationsindices (E₂-E₁)” value is given as -8.6.

For `CC1(C)C(=O)Nc2ccc(-c3c[nH]c(-c4ccc(Cl)cc4)n3)cc21` [Beispiel 6, 1,3-Dihydro-3,3-dimethyl-5-[2-(4-chlorphenyl)-4(1H)-imidazolyl]-(2H)-indol-2-on], the “Differenz der Erythrozytenaggregationsindices (E₂-E₁)” value was -8.2.

Consider `CC1(C)CC(=O)Nc2ccc(-c3c[nH]c(-c4ccccc4)n3)cc21` [Beispiel 14, 3,4-Dihydro-4,4-dimethyl-6-[2-phenyl-4(1H)-imidazolyl]-2(1H)-chinolinon], for which the “Differenz der Erythrozytenaggregationsindices (E₂-E₁)” value is listed as -7.2.
